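Step 1: Grow cells in 96-well plates. Step 2: Expose to compound for 48 hours at 5 concentrations. Step 3: Interpolate endpoints linearly; if unreached, use highest concentration. GI50 marks 50% less growth.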 Activity calls are given as the source filed them. Cut-off read from the data, not from the text of the source: active = GI50 up to about 1.1 µM and inactive = higher.
Assays:
Assay in all cases: growth of human tumour cells (NCI), 48 h
HT-29 = tested on: HT-29
SNB-75 = tested on: SNB-75
NCI-H522 = tested on: NCI-H522
LOX IMVI = tested on: LOX IMVI
SW-620 = tested on: SW-620
UACC-257 = tested on: UACC-257
SK-MEL-5 = tested on: SK-MEL-5
A498 = tested on: A498
RXF 393 = tested on: RXF 393
U-251 = tested on: U-251
UO-31 = tested on: UO-31
HCT-116 = tested on: HCT-116
T47D = tested on: T47D
M14 = tested on: M14
RPMI-8226 = tested on: RPMI-8226
SK-OV-3 = tested on: SK-OV-3
NCI-H23 = tested on: NCI-H23
Hs-578T = tested on: Hs-578T
OVCAR-3 = tested on: OVCAR-3
DU-145 = tested on: DU-145
COLO 205 = tested on: COLO 205
BT-549 = tested on: BT-549
SN12C = tested on: SN12C
MDA-MB-231 = tested on: MDA-MB-231
SF-539 = tested on: SF-539
UACC-62 = tested on: UACC-62
SK-MEL-2 = tested on: SK-MEL-2
SK-MEL-28 = tested on: SK-MEL-28
Malme-3M = tested on: Malme-3M
CCRF-CEM = tested on: CCRF-CEM
EKVX = tested on: EKVX
NCI-H226 = tested on: NCI-H226
786-0 = tested on: 786-0
MDA-MB-435 = tested on: MDA-MB-435
NCI/ADR-RES = tested on: NCI/ADR-RES
OVCAR-4 = tested on: OVCAR-4
CAKI-1 = tested on: CAKI-1
IGROV-1 = tested on: IGROV-1
SF-295 = tested on: SF-295
ACHN = tested on: ACHN
NCI-H460 = tested on: NCI-H460
HCC 2998 = tested on: HCC 2998
HOP-62 = tested on: HOP-62
OVCAR-5 = tested on: OVCAR-5
MOLT-4 = tested on: MOLT-4
PC-3 = tested on: PC-3
HCT-15 = tested on: HCT-15
KM12 = tested on: KM12
MDA-N = tested on: MDA-N
TK-10 = tested on: TK-10
OVCAR-8 = tested on: OVCAR-8
A549 = tested on: A549
HL-60 = tested on: HL-60
SF-268 = tested on: SF-268
K562 = tested on: K562
SNB-19 = tested on: SNB-19
HOP-92 = tested on: HOP-92
MCF7 = tested on: MCF7

Measured: GI50

CN(N)/N=N/c1[nH]cnc1[N+](=O)[O-]
> 100 µM: HCT-15
inactive: HT-29 > 100 µM | SNB-75 > 100 µM | NCI-H522 > 100 µM | LOX IMVI 39.2 µM | SW-620 81.1 µM | UACC-257 > 100 µM | SK-MEL-5 > 100 µM | A498 > 100 µM | RXF 393 > 100 µM | U-251 > 100 µM | UO-31 61.1 µM | HCT-116 34.8 µM | T47D 20.6 µM | M14 > 100 µM | RPMI-8226 22 µM | SK-OV-3 > 100 µM | NCI-H23 > 100 µM | Hs-578T > 100 µM | OVCAR-3 > 100 µM | DU-145 > 100 µM | COLO 205 > 100 µM | BT-549 > 100 µM | SN12C 31.8 µM | MDA-MB-231 21.7 µM | SF-539 46.6 µM | UACC-62 > 100 µM | SK-MEL-2 > 100 µM | SK-MEL-28 > 100 µM | Malme-3M > 100 µM | CCRF-CEM 5.01 µM | EKVX 94.8 µM | NCI-H226 > 100 µM | 786-0 18.7 µM | MDA-MB-435 > 100 µM | NCI/ADR-RES 35.4 µM | OVCAR-4 56.1 µM | CAKI-1 20.8 µM | IGROV-1 > 100 µM | SF-295 > 100 µM | ACHN > 100 µM | NCI-H460 > 100 µM | HCC 2998 > 100 µM | HOP-62 > 100 µM | OVCAR-5 > 100 µM | MOLT-4 14.6 µM | PC-3 > 100 µM | KM12 > 100 µM | MDA-N 51.2 µM | TK-10 > 100 µM | OVCAR-8 28.4 µM | A549 > 100 µM | HL-60 2.99 µM | SF-268 42.9 µM | K562 19.6 µM

O=c1sc2c(s1)-c1sc(=O)sc1SS2
inactive: HT-29 > 42.1 µM | SNB-75 7.71 µM | NCI-H522 > 91.4 µM | LOX IMVI > 60.4 µM | SW-620 > 100 µM | UACC-257 > 96.8 µM | SK-MEL-5 > 56.5 µM | A498 > 42.9 µM | RXF 393 > 100 µM | U-251 > 31.6 µM | UO-31 > 100 µM | HCT-116 > 100 µM | T47D > 100 µM | M14 48.2 µM | RPMI-8226 > 100 µM | SK-OV-3 > 100 µM | NCI-H23 > 37.5 µM | Hs-578T 81.7 µM | OVCAR-3 > 100 µM | DU-145 > 54 µM | SNB-19 > 100 µM | COLO 205 > 46 µM | BT-549 > 100 µM | SN12C > 100 µM | MDA-MB-231 > 100 µM | SF-539 41.5 µM | UACC-62 > 100 µM | SK-MEL-2 > 100 µM | SK-MEL-28 > 100 µM | Malme-3M > 100 µM | CCRF-CEM > 54.8 µM | EKVX > 76.2 µM | HOP-92 > 100 µM | NCI-H226 38.6 µM | 786-0 > 100 µM | MDA-MB-435 > 100 µM | NCI/ADR-RES 26.7 µM | OVCAR-4 > 100 µM | CAKI-1 > 100 µM | IGROV-1 > 96.4 µM | SF-295 > 100 µM | ACHN > 100 µM | NCI-H460 > 100 µM | HCC 2998 > 100 µM | HOP-62 > 100 µM | OVCAR-5 34.1 µM | MOLT-4 > 61 µM | PC-3 > 100 µM | KM12 > 100 µM | MDA-N > 100 µM | TK-10 > 52.6 µM | OVCAR-8 21.6 µM | MCF7 > 100 µM | A549 > 100 µM | HL-60 > 100 µM | SF-268 > 100 µM | K562 55.5 µM
18.7 µM: HCT-15
